Measured values published in patent publication US12558348B2, “Bioactive phytochemicals” (Phytoquest Limited, priority 2019, dated 2026).
Marks after values point to notes of the source that are not given here.

Experiments:
[1] = tested on: TNF-α; test: TNF-α production by LPS-stimulated BV-2 microglial cells; type: cell-based, murine; conditions: 24 hours
Protocol: idoBR1 was used in cell cultures of murine microglial cell line BV-2 at 0, 20, 40 and 80 μg/ml plus and minus sub-optimal LPS. Production of TNF-α and nitrite was measured after 24 hours.

[2] = tested on: IL-12; test: IL-12 ELISA in LPS stimulated THP-1 cells; type: cell-based, human; conditions: for % reduction in IL-12 levels: vs LPS control
Protocol: (§1) The cells in an 80% confluence culture flask were aspirated and centrifuged at 1500 rpm for 5 mins. The cell pellet was then resuspended in 1 ml of RPMI complete media and 1×10^5 cells/well seeded to each well of the 96 well microtiter plate. After 24 hrs incubation, PMA (10 ng/ml) was added to the 96 well plate to differentiate THP-1 cells to determine the TNF-α production, THP-1 cells were pretreated for 1 hr with idoBR1 or cucumber extract-Q-actin (batch no. […] Post incubation, the cell supernatant from each of the wells was aspirated into sterile micro centrifuge tubes and centrifuged at 1000 rpm for 2-3 mins. The cell supernatant was then used for evaluation of presence of cytokines using ELISA.
(§2) ELISA plates coated with antibodies for IL-12, IL-1β, or IL-10 (R&D Systems, USA) were used for the following study. To each well 50 μL of Assay Diluent RD1F was added after mixing well. 200 μL of sample (idoBR1 or extract), or control per well was added and covered with an adhesive strip. Following incubation for 2 hours at room temperature each well was aspirated and washed 4 times with Wash Buffer (400 μl). After the last wash, any remaining Wash Buffer was removed by aspirating or decanting. The plates were inverted and blotted against clean paper towels. To each well 200 μl of appropriate human conjugate was added and these then covered with a new adhesive strip and incubated for 1 hour at room temperature. The aspiration/wash was then repeated. 200 μL of Substrate Solution was then added to each well and further incubated for 20 minutes at room temperature protected from light. 50 μL of Stop Solution was added to each well. The colour in the wells was changed from blue to yellow. OD was measured within 30 minutes at 450 nm.

[3] = tested on: IL-10; test: IL-10 ELISA in LPS stimulated THP-1 cells; type: cell-based, human; conditions: for Fold increase in IL-10 levels: vs control = 1.00
Protocol: as §1, §2

[4] = tested on: IL-1β; test: IL-1β ELISA in LPS stimulated THP-1 cells; type: cell-based, human; conditions: for % reduction in IL-1 β levels: vs LPS control
Protocol: as §1, §2

[5] = tested on: phosphorylated ERK 42/44; test: Western blot of phosphorylated ERK p42/44 in LPS-stimulated THP-1 cells; type: cell-based, human; conditions: vs LPS = 1.00
Protocol: THP-1 cells were cultured in RPMI media supplemented with mercaptoethanol & glutamine to get 80% confluence in culture flasks, then they were aspirated and centrifuged at 1500 rpm for 5 mins. The cell pellet was then resuspended in 1 ml of RPMI complete media and counted conventionally using a hemocytometer. The cells (5×106) were incubated with PMA (10 ng/ml) in separate dishes to differentiate THP-1 cells. To determine the protein expression p38 & p42/44, THP-1 cells were pre-treated for 1 hr with idoBR1-100 μg/ml & 50 μg/ml and cucumber extract (Q-actin batch no. B17CF001)—200 μg/ml & 100 μg/ml, followed by 2 hr LPS (1 μg/ml) stimulation. Post incubation, the cells were harvested and whole protein was isolated.
Cell pellets were lysed, and the protein concentration was determined using the Bio-Rad protein determination assay (Bio-Rad). Total cell proteins were subjected to 8% polyacrylamide SDS gel electrophoresis followed by transfer onto polyvinylidene difluoride membranes (Thermoscientific). The membranes were probed with either mouse anti-phospho-p38 mAb (Thermoscientific) or mouse anti-phospho-p42/44 mAb (Thermoscientific), followed by horseradish peroxidase-conjugated goat anti-mouse polyclonal antibodies (Thermoscientific). All immunoblots were visualized by ECL (Amersham Biosciences).

O=C(O)[C@@H]1NC[C@H](O)[C@@H](O)[C@@H]1O [idoBR1, (2R,3R,4R,5S)-3,4,5-trihydroxypiperidine-2-carboxylic acid]
TNF-α production ([1]; 20 μg/ml + LPS): 500** pg/ml | TNF-α production ([1]; 40 μg/ml + LPS): 470** pg/ml | TNF-α production ([1]; 80 μg/ml + LPS): 410*** pg/ml | IL-12 ([2]; 12.5 μg/mL): 104.23 pg/mL | % reduction in IL-12 levels ([2]; 12.5 μg/mL): 11.22% | IL-12 ([2]; 25 μg/mL): 97.37 pg/mL | % reduction in IL-12 levels ([2]; 25 μg/mL): 17.07% | IL-12 ([2]; 50 μg/mL): 92.89 pg/mL | % reduction in IL-12 levels ([2]; 50 μg/mL): 20.88% | IL-12 ([2]; 100 μg/mL): 88.60 pg/mL | % reduction in IL-12 levels ([2]; 100 μg/mL): 24.53% | IL-10 ([3]; 12.5 μg/mL): 19.02 pg/mL | Fold increase in IL-10 levels ([3]; 12.5 μg/mL): 1.34 fold | IL-10 ([3]; 25 μg/mL): 29.34 pg/mL | Fold increase in IL-10 levels ([3]; 25 μg/mL): 2.07 fold | IL-10 ([3]; 50 μg/mL): 37.22 pg/mL | Fold increase in IL-10 levels ([3]; 50 μg/mL): 2.63 fold | IL-10 ([3]; 100 μg/mL): 43.08 pg/mL | Fold increase in IL-10 levels ([3]; 100 μg/mL): 3.04 fold | IL-1β ([4]; 12.5 μg/mL): 133.30 pg/mL | % reduction in IL-1 β levels ([4]; 12.5 μg/mL): 9.31% | IL-1β ([4]; 25 μg/mL): 127.63 pg/mL | % reduction in IL-1 β levels ([4]; 25 μg/mL): 13.17% | IL-1β ([4]; 50 μg/mL): 120.36 pg/mL | % reduction in IL-1 β levels ([4]; 50 μg/mL): 18.12% | IL-1β ([4]; 100 μg/mL): 111.60 pg/mL | % reduction in IL-1 β levels ([4]; 100 μg/mL): 24.07% | Relative expression of p42/44 ([5]; 50 μg/ml): 0.80 | Relative expression of p42/44 ([5]; 100 μg/ml): 0.76
